Measured values from the NIST ThermoML archive (doi:10.1016/j.fluid.2010.01.023).
Values joined by “and” are separate entries in the source; they are usually repeats but may differ in a detail not shown here. Equal entries are not always repeated. Numbers after ± are expanded uncertainties.

Test: xn = mol fraction of the nth substance listed
Conditions: Fluid (supercritical or subcritical phases), quasistatic thermogram and barogram, x2 = 0.7393

N [ammonia] + O
Conditions | thermal pressure coefficient
330.88 K, Mass density=540.25 kg/m3 | 7 ± 1 kPa/K
349.52 K, Mass density=540.25 kg/m3 | 12 ± 1 kPa/K
366.71 K, Mass density=540.25 kg/m3 | 17 ± 1 kPa/K
397.73 K, Mass density=540.25 kg/m3 | 32 ± 1 kPa/K
402.59 K, Mass density=671.23 kg/m3 | 30 ± 1 kPa/K
407.37 K, Mass density=649.65 kg/m3 | 37 ± 1 kPa/K
407.57 K, Mass density=649.65 kg/m3 | 37 ± 1 kPa/K
407.79 K, Mass density=649.65 kg/m3 | 40 ± 1 kPa/K
421.43 K, Mass density=540.25 kg/m3 | 43 ± 1 kPa/K
446.89 K, Mass density=540.25 kg/m3 | 58 ± 1 kPa/K
473.33 K, Mass density=540.25 kg/m3 | 77 ± 1 kPa/K
478.28 K, Mass density=671.23 kg/m3 | 86 ± 1 kPa/K
485.04 K, Mass density=671.23 kg/m3 | 86 ± 1 kPa/K
492.71 K, Mass density=671.23 kg/m3 | 87 ± 1 kPa/K
494.07 K, Mass density=540.25 kg/m3 | 97 ± 1 kPa/K
498.62 K, Mass density=671.23 kg/m3 | 97 ± 1 kPa/K
507.04 K, Mass density=671.23 kg/m3 | 118 ± 1 kPa/K
508.36 K, Mass density=671.23 kg/m3 | 941 ± 42 kPa/K
509.3 K, Mass density=649.65 kg/m3 | 106 ± 34 kPa/K
509.3 K, Mass density=671.23 kg/m3 | 935 ± 35 kPa/K
513.52 K, Mass density=671.23 kg/m3 | 976 ± 37 kPa/K
514.53 K, Mass density=649.65 kg/m3 | 119 ± 35 kPa/K
516.77 K, Mass density=540.25 kg/m3 | 116 ± 1 kPa/K
517.23 K, Mass density=540.25 kg/m3 | 119 ± 1 kPa/K
519.21 K, Mass density=649.65 kg/m3 | 137 ± 5 kPa/K
519.86 K, Mass density=649.65 kg/m3 | 896 ± 5 kPa/K
520.05 K, Mass density=649.65 kg/m3 | 897 ± 5 kPa/K
520.42 K, Mass density=649.65 kg/m3 | 899 ± 5 kPa/K
521.54 K, Mass density=649.65 kg/m3 | 899 ± 12 kPa/K
527.01 K, Mass density=649.65 kg/m3 | 915 ± 13 kPa/K
527.03 K, Mass density=456.58 kg/m3 | 125 ± 1 kPa/K
530.51 K, Mass density=552.58 kg/m3 | 130 ± 1 kPa/K
530.67 K, Mass density=594.32 kg/m3 | 131 ± 5 kPa/K
530.98 K, Mass density=476.25 kg/m3 | 129 ± 1 kPa/K
534.1 K, Mass density=594.32 kg/m3 | 139 ± 1 kPa/K
536.84 K, Mass density=540.25 kg/m3 | 135 ± 1 kPa/K
537.29 K, Mass density=540.25 kg/m3 | 135 ± 1 kPa/K
539.15 K, Mass density=594.32 kg/m3 | 145 ± 1 kPa/K
539.88 K, Mass density=552.58 kg/m3 | 138 ± 1 kPa/K
540.06 K, Mass density=476.25 kg/m3 | 137 ± 1 kPa/K
540.79 K, Mass density=476.25 kg/m3 | 137 ± 1 kPa/K
541.46 K, Mass density=594.32 kg/m3 | 152 ± 1 kPa/K
541.53 K, Mass density=456.58 kg/m3 | 139 ± 1 kPa/K
542.16 K, Mass density=594.32 kg/m3 | 153 ± 1 kPa/K
544.61 K, Mass density=594.32 kg/m3 | 158 ± 1 kPa/K
545.26 K, Mass density=594.32 kg/m3 | 161 ± 39 kPa/K
546.16 K, Mass density=594.32 kg/m3 | 744 ± 72 kPa/K
546.26 K, Mass density=594.32 kg/m3 | 736 ± 15 kPa/K
548.44 K, Mass density=476.25 kg/m3 | 146 ± 1 kPa/K
549.77 K, Mass density=594.32 kg/m3 | 742 ± 11 kPa/K
550.79 K, Mass density=552.58 kg/m3 | 152 ± 8 kPa/K
551.43 K, Mass density=552.58 kg/m3 | 154 ± 8 kPa/K
552.99 K, Mass density=456.58 kg/m3 | 160 ± 1 kPa/K
553.25 K, Mass density=456.58 kg/m3 | 154 ± 1 kPa/K
553.7 K, Mass density=376.89 kg/m3 | 161 ± 1 kPa/K
554.5 K, Mass density=552.58 kg/m3 | 156 ± 1 kPa/K
555.04 K, Mass density=552.58 kg/m3 | 159 ± 1 kPa/K
556.55 K, Mass density=540.25 kg/m3 | 159 ± 1 kPa/K
556.9 K, Mass density=456.58 kg/m3 | 158 ± 1 kPa/K
558.82 K, Mass density=552.58 kg/m3 | 167 ± 1 kPa/K
559.36 K, Mass density=476.25 kg/m3 | 160 ± 1 kPa/K
560.44 K, Mass density=552.58 kg/m3 | 171 ± 1 kPa/K
562 K, Mass density=552.58 kg/m3 | 654 ± 51 kPa/K
562.66 K, Mass density=540.25 kg/m3 | 177 ± 29 kPa/K
563.63 K, Mass density=342.18 kg/m3 | 162 ± 1 kPa/K
563.98 K, Mass density=540.25 kg/m3 | 181 ± 7 kPa/K
564.69 K, Mass density=540.25 kg/m3 | 185 ± 8 kPa/K
565.22 K, Mass density=540.25 kg/m3 | 186 ± 3 kPa/K
565.31 K, Mass density=540.25 kg/m3 | 187 ± 3 kPa/K
566.19 K, Mass density=540.25 kg/m3 | 611 ± 5 kPa/K
566.98 K, Mass density=540.25 kg/m3 | 606 ± 5 kPa/K
568.48 K, Mass density=456.58 kg/m3 | 174 ± 1 kPa/K
570.03 K, Mass density=476.25 kg/m3 | 179 ± 7 kPa/K
570.81 K, Mass density=476.25 kg/m3 | 182 ± 4 kPa/K
571.02 K, Mass density=376.89 kg/m3 | 175 ± 1 kPa/K
571.35 K, Mass density=476.25 kg/m3 | 183 ± 4 kPa/K
571.99 K, Mass density=456.58 kg/m3 | 187 ± 1 kPa/K
572.95 K, Mass density=540.25 kg/m3 | 618 ± 5 kPa/K
574.99 K, Mass density=476.25 kg/m3 | 191 ± 4 kPa/K
575.79 K, Mass density=476.25 kg/m3 | 191 ± 6 kPa/K
575.93 K, Mass density=120.03 kg/m3 | 148 ± 4 kPa/K
576.8 K, Mass density=147.43 kg/m3 | 154 ± 5 kPa/K
578.55 K, Mass density=456.58 kg/m3 | 197 ± 1 kPa/K
578.75 K, Mass density=540.25 kg/m3 | 632 ± 5 kPa/K
579.5 K, Mass density=476.25 kg/m3 | 198 ± 8 kPa/K
579.85 K, Mass density=456.58 kg/m3 | 204 ± 1 kPa/K
580.18 K, Mass density=476.25 kg/m3 | 203 kPa/K and 452 kPa/K
580.65 K, Mass density=476.25 kg/m3 | 456 ± 6 kPa/K
580.9 K, Mass density=329 kg/m3 | 185 ± 6 kPa/K
581.27 K, Mass density=476.25 kg/m3 | 457 ± 3 kPa/K
581.59 K, Mass density=342.18 kg/m3 | 192 ± 1 kPa/K
581.68 K, Mass density=320.33 kg/m3 | 186 ± 6 kPa/K
581.77 K, Mass density=456.58 kg/m3 | 198 ± 8 kPa/K
582.01 K, Mass density=120.03 kg/m3 | 155 ± 5 kPa/K
582.45 K, Mass density=308.35 kg/m3 | 190 ± 6 kPa/K
582.46 K, Mass density=307.35 kg/m3 | 190 ± 6 kPa/K
582.55 K, Mass density=312.91 kg/m3 | 189 ± 6 kPa/K
582.99 K, Mass density=540.25 kg/m3 | 639 ± 3 kPa/K
583.68 K, Mass density=456.58 kg/m3 | 203 ± 9 kPa/K
583.77 K, Mass density=160.07 kg/m3 | 168 ± 5 kPa/K
584.72 K, Mass density=456.58 kg/m3 | 202 ± 7 kPa/K
584.81 K, Mass density=120.03 kg/m3 | 155 ± 5 kPa/K
584.88 K, Mass density=476.25 kg/m3 | 473 ± 3 kPa/K
584.95 K, Mass density=456.58 kg/m3 | 206 kPa/K and 410 kPa/K
585.31 K, Mass density=120.03 kg/m3 | 154 kPa/K and 128 kPa/K
585.68 K, Mass density=147.43 kg/m3 | 166 ± 5 kPa/K
586.08 K, Mass density=120.03 kg/m3 | 100 ± 4 kPa/K
586.37 K, Mass density=120.03 kg/m3 | 96 ± 3 kPa/K
587.24 K, Mass density=456.58 kg/m3 | 416 ± 2 kPa/K
589.66 K, Mass density=305.44 kg/m3 | 194 ± 6 kPa/K
590.01 K, Mass density=297.6 kg/m3 | 191 ± 6 kPa/K
590.09 K, Mass density=303.47 kg/m3 | 191 ± 6 kPa/K
590.18 K, Mass density=342.18 kg/m3 | 198 ± 1 kPa/K
590.18 K, Mass density=376.89 kg/m3 | 201 ± 1 kPa/K
590.7 K, Mass density=309.95 kg/m3 | 203 ± 6 kPa/K
591.04 K, Mass density=308.35 kg/m3 | 200 ± 6 kPa/K
591.13 K, Mass density=301.94 kg/m3 | 196 ± 6 kPa/K
591.13 K, Mass density=329 kg/m3 | 194 ± 6 kPa/K
591.32 K, Mass density=376.89 kg/m3 | 202 ± 1 kPa/K
591.47 K, Mass density=160.07 kg/m3 | 177 ± 5 kPa/K
591.47 K, Mass density=299.79 kg/m3 | 190 ± 6 kPa/K
591.47 K, Mass density=320.33 kg/m3 | 199 ± 6 kPa/K
591.73 K, Mass density=376.89 kg/m3 | 202 ± 1 kPa/K
592.08 K, Mass density=312.91 kg/m3 | 191 ± 6 kPa/K
592.42 K, Mass density=147.43 kg/m3 | 176 ± 5 kPa/K
592.68 K, Mass density=307.35 kg/m3 | 194 ± 6 kPa/K
592.94 K, Mass density=188.05 kg/m3 | 184 ± 6 kPa/K
593.2 K, Mass density=147.43 kg/m3 | 175 ± 5 kPa/K
593.54 K, Mass density=311.19 kg/m3 | 197 ± 6 kPa/K
593.89 K, Mass density=147.43 kg/m3 | 148 ± 5 kPa/K
594.06 K, Mass density=376.89 kg/m3 | 206 ± 2 kPa/K
594.14 K, Mass density=147.43 kg/m3 | 168 kPa/K and 141 kPa/K
